For one assay, the system named is HCT 116 Xenograft Tumors. Briefly: HCT 116 cell line xenograft: DOXIL given 16 hr prior to Compound B-2 CoX (PO), 2 weekly cycles; tumor growth (studies of Tables 4-9). The class given is in vivo, nu/nu nude mice. As to conditions: Table 5 study; 100 mg/kg Compound B-2 CoX qd×4 alone. The protocol:
(§1) Statistical significance was defined as P<0.05.
Effect of Compound B-2 CoX Schedule in Combination with DOXIL® in HCT 116 Xenograft Tumors: The HCT 116 xenograft tumor model was selected for further examination of the effect of schedule and dose of Compound B-2 CoX in combination with DOXIL®. In this study, the effect of dosing Compound B-2 CoX qd for 2, 3, and 4 days following DOXIL® was examined.
Dose Response of DOXIL® alone and Dose Response of Compound B-2 CoX in Combination with 6 mg/kg DOXIL® in HCT 116 Xenograft Tumors: Additional investigations were conducted to determine the dose response of DOXIL® alone (1.5-6 mg/kg) in the HCT 116 xenograft tumor model. Further, a dose response of Compound B-2 CoX (25-100 mg/kg) in combination with 6 mg/kg DOXIL® was also assessed. Lastly, the efficacy of 1.5 mg/kg DOXIL® in combination with 200 mg/kg Compound B-2 CoX was also examined.
Result of reexamination of Compound B-2 CoX Dose and Schedule in Combination with DOXIL® in an HCT 116 Xenograft Mouse Model.
Examination of the Effect of Compound B-2 CoX Dose in Combination with 3 mg/kg DOXIL® in an HCT 116 Xenograft Tumor Model: A 3 mg/kg DOXIL® dose was examined in combination with a range of doses of Compound B-2 CoX (50-200 mg/kg) to identify the response of HCT 116 xenograft tumors to these combinations. […]

The next assay relates to OVCAR-3 Xenograft Tumors. Briefly: OVCAR-3 cell line xenograft: DOXIL given 16 hr prior to Compound B-2 CoX (PO); tumor growth. The class given is in vivo, nu/nu nude mice. As to conditions: 100 mg/kg Compound B-2 CoX qd×2 alone.
Excerpt: as §1

Assay [1] concerns pKAP1 and pH2AX levels in DU4475 breast cancer cells. The experiment in a line: pKAP1 and pH2AX immunoblot, Compound B-2 and doxorubicin in DU4475 breast cancer cells. It counts as cell-based, human. As to conditions: doxorubicin alone, 100 nM or 500 nM; from 4-8 h, elevated up to 24 h at 500 nM only. The protocol: (§2) Materials and Methods. The human cancer cell lines A549 (CCL-185), DU4475 (HTB-123), MDA-MB-436 (HTB-130), and MDA-MB-468 (HTB-132) were obtained from American Type Culture Collection (ATCC; Manassas, VA). A 10 mM stock solution of Compound B-1 or Compound B-2 was prepared in DMSO and stored at −20° C. Etoposide and doxorubicin were purchased from Sigma-Aldrich (St. Louis, MO).
(§3) The A549 human lung cancer cell line was purchased from ATCC and was cultured in DMEM supplemented with 10% fetal bovine serum, 1× non-essential amino acids and 1× Penicillin/Streptomycin (complete medium). Cells were maintained at a subconfluent state by passaging every 2-3 days. Human breast cancer cells lines DU4475, MDA-MB-436, and MDA-MB-468 were purchased from ATCC and cultured in DMEM supplemented with 10% fetal bovine serum, 1× Glutamax and Penicillin/Streptomycin. Cells were maintained at a subconfluent state by passaging every 2-3 days.
(§4) Compound B-1 and Compound B-2 used in these experiments were not prepared as a co-crystals.
(§5) Breast cancer cell lines grown in 24-well (Costar, catalog #3526) or 6-well (Costar, catalog #3516) tissue culture plates to 70-80% confluence were pre-incubated with 1 μM Compound B-2 or DMSO for 15 min. Doxorubicin was added to a final concentration of either 100 nM or 500 nM from a 1000× stock prepared in DMSO. Cells were then incubated for the indicated amount of time and harvested for analysis.
Cell Lysis and Western Blot Analysis. Cells treated with Compound B-1 or Compound B-2 in combination with chemotherapeutic agents were washed once with ice-cold PBS and then dissolved in 150 μL/well 2×SDS-PAGE sample buffer, transferred to microfuge tubes, and heated in a 105° C. heat block for 5 min for immunoblotting. A 15-μL aliquot of each SDS-PAGE sample was loaded onto 12-lane 4 20% Tris-Glycine gels and the gels were run at 125v constant voltage until the dye front reached the bottom (approximately 2 h). Following electrophoresis, separated proteins in the gels were transferred to a nitrocellulose membrane. Transfer was carried out for 2 h at 1.5 A constant current in a cold room using a Hoefer transfer apparatus (Model TE42 or TE62, Hoefer Inc, Holliston, MA) according to manufacturer's instructions. Following transfer, nitrocellulose membranes were incubated with blocking buffer for 1 h at room temperature. The nitrocellulose membranes were cut and the bottom halves were incubated overnight with 2 primary antibodies, anti-pH2AX (1/1000) and anti-total H2AX (1/1000). After washing, the appropriate fluorescently labeled secondary antibodies were added to the membranes and then imaged with pH2AX on the 800 (green) channel and total H2AX on the 700 (red) channel. The top halves of the membranes were probed sequentially for pKAP1 (1/1000) on the 700 (red) channel and then probed for total KAP1 (1/1000) and GAPDH (1/2500) on the 800 (green) channel. Image acquisition was conducted using an Odyssey fluorescent imaging system (Li-Cor Biosciences; Lincoln, NE).
Compound B-2 and doxorubicin combination in breast cancer cell lines in culture. To examine the effect of DNA-PK inhibition on pKAP1 and pH2AX in vitro, DU4475 breast cancer cells were pre-incubated with 1 μM Compound B-2 for 15 min, followed by addition of 100 nM or 500 nM doxorubicin. Cells were harvested at various time points following doxorubicin addition and analyzed for levels of pKAP1 and pH2AX by immunoblotting.
(In general: A western blot detects proteins with antibodies after separation by electrophoresis.)

Assay [2] concerns pKAP1 and pH2AX levels in MDA-MB-436 and MDA-MB-468 breast cancer cells. Briefly: pKAP1 and pH2AX immunoblot, Compound B-2 and doxorubicin in MDA-MB-436 and MDA-MB-468 cells. Particulars: 500 nM doxorubicin alone; at 4 h, remained elevated to 8 h. It counts as cell-based, human. The protocol:
as §2, §3, §4, §5
Cell Lysis and Western Blot Analysis. […]
To determine that enhancement of DNA damage by concurrent treatment of cells with Compound B-2 and doxorubicin was not specific to DU4475 cells, two additional breast cancer cell lines, MDA-MB-436 and MDA-MB-468, were also pre-incubated with 1 μM Compound B-2 for 15 min, followed by addition of 500 nM doxorubicin. Cells were harvested at various time points following doxorubicin addition and analyzed for levels of pKAP1 and pH2AX by immunoblotting.

Each structure is given as a SMILES string.

With `[2H]c1nc(C)nc([2H])c1-c1cc(NC[C@@H](C)c2cccc3c(C(=O)NC)ccnc23)ncn1` [Compound B-2 CoX], in the assay with HCT 116 Xenograft Tumors, the “% T/C (Day 19)” value is 106%. Further, the “% T/C (Day 43)” value in the assay with OVCAR-3 Xenograft Tumors was determined as 83.2%.

As to `COc1cccc2c1C(=O)c1c(O)c3c(c(O)c1C2=O)C[C@@](O)(C(=O)CO)C[C@@H]3O[C@H]1C[C@H](N)[C@H](O)[C@H](C)O1` [Doxorubicin, reference compound], the “pKAP1 and pH2AX level” value in assay [1] and in assay [2] was “increased level” each time.

(Values after US11980633B2, “Method for treating cancer using a combination of DNA-damaging agents and DNA-PK inhibitors” (Vertex Pharmaceuticals Incorporated, priority 2016, dated 2024).)
